In US20140378422A1, “Combination of a RTK inhibitor with an anti-estrogen and use thereof for the treatment of cancer” (NOVARTIS AG, priority 2012, published 2014):

Key:
[1] = system: metastatic breast cancer; assay: Clinical trial of Compound A as single agent in metastatic breast cancer patients; assay type: in vivo, human; settings: preliminary results
[2] = system: CAMA-1 cell line; assay: CAMA-1 cell proliferation, CellTiter-Glo Luminescent Cell Viability Assay, dose matrix analysed with Chalice Analyzer; assay type: cell-based; settings: standard media, 72 hrs, FIG. 2A
Description: Cell lines were grown at 37° C. and 5% CO2.
24 hours following plating, 20 ul of each compound dilution series was transferred to plates containing the cells, resulting in compound concentration ranges from 50 nM to 4000 nM by 3-fold dilutions and a final DMSO concentration of 0.16%. The total volume in each well was 100 ul and each dose matrix was tested in triplicate on separate assay plates.
The average and standard deviation percent inhibition relative to DMSO treated control for triplicate compound-treated wells at each concentration of compounds was determined and up-loaded to Chalice Analyzer Database.

SMILES | unconfirmed partial responses ([1]; patients with FGF amplified disease (FGFR1 and/or FGFR2 and/or FGF3 amplification)) | patients with stable disease for greater than 24 weeks and/or a partial response that was not confirmed at four weeks ([1]; patients with FGF amplified disease) | patients with stable disease greater than 24 weeks ([1]; patients with FGF-pathway non-amplified disease) | concentrations with a modest effect on proliferation as a single agent [2] [µM]
CN1CCN(c2ccc3nc(-c4c(N)c5c(F)cccc5[nH]c4=O)[nH]c3c2)CC1 [Compound A, 4-amino-5-fluoro-3-[5-(4-methylpiperazin-1-yl)-1H-benzimidazol-2-yl]quinolin-2(1H)-one] | 3 | five | 3 | 
C[C@]12CC[C@@H]3c4ccc(O)cc4C[C@@H](CCCCCCCCC[S+]([O-])CCCC(F)(F)C(F)(F)F)[C@H]3[C@@H]1CC[C@@H]2O (stereo partly drawn) [Fulvestrant, (7α,17β)-7-[9-[(4,4,5,5,5-Pentafluoropentyl)sulfinyl]nonyl]estra-1,3,5(10)-triene-3,17-diol] |  |  |  | ≥ 0.049
